The data set is described as follows: Solubility of ecabet sodium in aqueous solution. In kind it is physicochemical. To be noted: pH less than pH 7.

Structures can show the parent of a compound that is named as a salt.

Data on 1 molecule can be found in patent US20040259905A1, “Aqueous ecabet sodium solution preparation” (priority 2001, published 2004).

As to `CC(C)c1cc2c(cc1S(=O)(=O)O)[C@@]1(C)CCC[C@@](C)(C(=O)O)[C@@H]1CC2` [ecabet sodium, (+)-(1R,4aS,10aR)-1,2,3,4,4a,9,10,10a-octahydro-1,4a-dimethyl-7-(1-methylethyl)-6-sulfo-1-phenanthrencarboxylic acid 6-sodium salt pentahydrate], the “solubility in an aqueous solution” value is “low”.
